In patent US12077503B2, “Substituted cyclic amides and their use as herbicides” (FMC CORPORATION, priority 2015, dated 2024):

Tests used:
Type in all cases: in vivo
corn (Zea mays) = experiment: Test A postemergence; conditions: Zea mays, post-emergence, 240 h
In short: (§1)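 Greenhouse, ~10 d after spray; visual injury vs untreated controls, 0 = no effect, 100 = complete control. Preemergence: directed soil spray over planted seeds. Postemergence: plants 2–10 cm, 1–2 leaf stage. Loam/sand blend. Compound in non-phytotoxic solvent with surfactant.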

[1] = system: ryegrass, Italian (Italian ryegrass, Lolium multiflorum); experiment: Test A postemergence; conditions: Lolium multiflorum, post-emergence, 240 h, read-out: Plant response rating, Ryegrass, Italian
In short: as §1

[2] = system: giant foxtail (Setaria faberii); experiment: Test A postemergence; conditions: Setaria faberi, post-emergence, 240 h, read-out: Plant response rating, Foxtail, Giant
In short: as §1

[3] = system: pigweed (Amaranthus retroflexus); experiment: Test A postemergence; conditions: Amaranthus retroflexus, post-emergence, 240 h, read-out: Plant response rating, Pigweed
In short: as §1

[4] = system: blackgrass (Alopecurus myosuroides); experiment: Test A postemergence; conditions: Alopecurus myosuroides, post-emergence, 240 h, read-out: Plant response rating, Blackgrass
In short: as §1

Kochia (Kochia scoparia) = experiment: Test A postemergence; conditions: Bassia scoparia, post-emergence, 240 h, read-out: Plant response rating, Kochia
In short: as §1

[5] = system: Galium (catchweed bedstraw, Galium aparine); experiment: Test A postemergence; conditions: Galium, post-emergence, 240 h, read-out: Plant response rating, Galium
In short: as §1

[6] = system: wheat (Triticum aestivum); experiment: Test A postemergence; conditions: Triticum aestivum, post-emergence, 240 h, read-out: Plant response rating, Wheat
In short: as §1

[7] = system: ragweed (common ragweed, Ambrosia elatior); experiment: Test A postemergence; conditions: Ambrosia artemisiifolia, post-emergence, 240 h, read-out: Plant response rating, Ragweed
In short: as §1

[8] = system: barnyardgrass (Echinochloa crus-galli); experiment: Test A postemergence; conditions: Echinochloa crus-galli, post-emergence, 240 h, read-out: Plant response rating, Barnyardgrass
In short: as §1

[9] = system: giant foxtail (Setaria faberii); experiment: Test A preemergence; conditions: Setaria faberi, pre-emergence, 240 h
In short: as §1

[10] = system: sedge, umbrella (small-flower umbrella sedge, Cyperus difformis); experiment: Test B flooded paddy test; conditions: Cyperus difformis, 250 g ai/ha, Flood; 0 to 100 scale where 0 is no effect and 100 is complete control; read-out: Sedge, Umbrella plant response rating
In short: (§2)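 Evaluation by eye, against controls, occurred 13–15 d post-treatment in a greenhouse, using a 0 (no effect) to 100 (complete control) scale. Application was into the paddy water, 3 cm deep over the soil, on 2-leaf plants.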

[11] = system: ducksalad (Heteranthera limosa); experiment: Test B flooded paddy test; conditions: Heteranthera limosa, 250 g ai/ha, Flood; 0 to 100 scale where 0 is no effect and 100 is complete control; read-out: Ducksalad plant response rating
In short: as §2

rice (Oryra sativa) = experiment: Test B flooded paddy test; conditions: Oryza sativa, 250 g ai/ha, Flood; 0 to 100 scale where 0 is no effect and 100 is complete control; read-out: Rice plant response rating
In short: as §2

[12] = system: barnyardgrass (Echinochloa crus-galli); experiment: Test B flooded paddy test; conditions: Echinochloa crus-galli, 250 g ai/ha, Flood; 0 to 100 scale where 0 is no effect and 100 is complete control; read-out: Barnyardgrass plant response rating
In short: as §2

[13] = 125 g ai/ha, Postemergence, visual injury after approximately 10 d, 0 to 100 scale where 0 is no effect and 100 is complete control
[14] = 500 g ai/ha, postemergence, visual injury, 0 to 100 scale (0 no effect, 100 complete control), approx. 10 d

In the case of `O=C1NC[C@H](c2ccc3c(c2)OCO3)[C@H]1C(=O)Nc1ccc(F)cc1F` [Compound 1026], the Corn plant response rating (crop injury, 0 = no effect, 100 = complete kill) at 125 g/ha (corn (Zea mays); [13]) is reported as 0%, the Corn plant response rating (crop injury, 0 = no effect, 100 = complete kill) at 500 g/ha (corn (Zea mays); [14]) is reported as 30% and the pest or weed control at 125 g/ha [1, 13] is reported as 0%. The pest or weed control at 500 g/ha [1, 14] was 0%, the pest or weed control at 125 g/ha [2, 13] was 0% and the pest or weed control at 500 g/ha [2, 14] was 20%. It also gave a pest or weed control at 125 g/ha [3, 13] of 0%, a pest or weed control at 500 g/ha [3, 14] of 0% and a pest or weed control at 125 g/ha [4, 13] of 0%. For the same compound, the pest or weed control at 500 g/ha [4, 14] was 0%, the pest or weed control at 125 g/ha (Kochia (Kochia scoparia); [13]) was 0% and the pest or weed control at 500 g/ha (Kochia (Kochia scoparia); [14]) was 0%. The pest or weed control at 125 g/ha [5, 13] was 0%, the pest or weed control at 500 g/ha [5, 14] was 50% and the plant injury at 125 g/ha [6, 13] was 20%. It also gave a plant injury at 500 g/ha [6, 14] of 30%, a pest or weed control at 125 g/ha [7, 13] of 0% and a pest or weed control at 500 g/ha [7, 14] of 0%. The pest or weed control at 125 g/ha [8, 13] was 70%, the pest or weed control at 500 g/ha [8, 14] was 90% and the pest or weed control at 125 g/ha ([9]; 125 g ai/ha, Preemergence, visual injury rating after approximately 10 d, read-out: Foxtail, Giant plant response rating (0 to 100 scale, 0 is no effect, 100 is complete control)) was 30%. For the same compound, the pest or weed control at 500 g/ha ([9]; 500 g ai/ha, preemergence, visual injury rating about 10 d after treatment, 0 to 100 scale (0 no effect, 100 complete control), read-out: Foxtail, Giant plant response rating) was 90%, the pest or weed control at 250 g/ha [10] was 0% and the pest or weed control at 250 g/ha [11] was 100%. It also gave a pest or weed control at 250 g/ha (rice (Oryra sativa)) of 20% and a pest or weed control at 250 g/ha [12] of 0%.
